The text below walks through data of US7119221B2, “Cycloalkyl-hydroxyl compounds and compositions for cholesterol management and related uses” (Esperion Therapeutics, Inc., priority 2003, dated 2006).

Data set [1] has as its system primary rat hepatocytes. Put plainly: Inhibition of lipid synthesis ([1-14C]-acetate incorporation) in primary cultures of rat hepatocytes. The class given is cell-based. The following applies: Hepatocyte, 4 hour incubation with [1-14C]-acetate, 0-300 μM compound. As to the method:
Compounds were tested for inhibition of lipid synthesis in primary cultures of rat hepatocytes. Male Sprague-Dawley rats were anesthetized with intraperitoneal injection of sodium pentobarbital (80 mg/kg). Rat hepatocytes were isolated essentially as described by the method of Seglen (Seglen, P. O. Hepatocyte suspensions and cultures as tools in experimental carcinogenesis. J. Toxicol. Environ. Health 1979, 5, 551–560). Hepatocytes were suspended in Dulbecco's Modified Eagles Medium containing 25 mM D-glucose, 14 mM HEPES, 5 mM L-glutamine, 5 mM leucine, 5 mM alanine, 10 mM lactate, 1 mM pyruvate, 0.2% bovine serum albumin, 17.4 mM non-essential amino acids, 20% fetal bovine serum, 100 nM insulin and 20 μg/mL gentamycin) and plated at a density of 1.5×10^5 cells/cm^2 on collagen-coated 96-well plates. Four hours after plating, media was replaced with the same media without serum. Cells were grown overnight to allow formation of monolayer cultures. Lipid synthesis incubation conditions were initially assessed to ensure the linearity of [1-^14C]-acetate incorporation into hepatocyte lipids for up to 4 hours. Hepatocyte lipid synthesis inhibitory activity was assessed during incubations in the presence of 0.25 μCi [1-^14C]-acetate/well (final radiospecific activity in assay is 1 Ci/mol) and 0, 1, 3, 10, 30, 100 or 300 μM of compounds for 4 hours. At the end of the 4-hour incubation period, medium was discarded and cells were washed twice with ice-cold phosphate buffered saline and stored frozen prior to analysis. To determine total lipid synthesis, 170 μl of MicroScint-E® and 50 μl water was added to each well to extract and partition the lipid soluble products to the upper organic phase containing the scintillant. Lipid radioactivity was assessed by scintillation spectroscopy in a Packard TopCount NXT.

Data set [2] deals with obese female Zucker rats. Put plainly: Oral daily treatment of chow fed obese female Zucker rats for fourteen days: serum lipids, glycemic control indicators, body weight. The class given is in vivo, rat. Particulars: oral gavage, 14 days; for % wt. gain: obese female Zucker rats; for Glucose, Percent of Pre-treatment: blood glucose after 6 hour fast; for HDL-C, Percent of Pre-treatment / Insulin, Percent of Pre-treatment / Non-HDL-C, Percent of Pre-treatment: serum; for BHA, Percent of Pre-treatment: serum beta-hydroxy butyric acid; for NEFA, Percent of Pre-treatment: serum non-esterified fatty acids; for HDL-C/non-HDL-C: serum ratio; for TC, Percent of Pre-treatment: serum total cholesterol; for TG, Percent of Pre-treatment: serum triglycerides. As to the method: In a number of different experiments, illustrative compounds of the invention are administered daily at a dose of up to 100 mg/kg to chow fed obese female Zucker rats for fourteen days in the morning by oral gavage in 1.5% carboxymethylcellulose/0.2% Tween 20 or 20% ethanol/80% polyethylene glycol (dosing vehicles). Animals are weighed daily. Animals are allowed free access to rodent chow and water throughout the study except on days of blood sampling where food is restricted for six hours prior to blood sampling. Blood glucose is determined after the 6 hour fast in the afternoon without anesthesia from a tail vein. Serum is also prepared from pretreatment blood samples subsequently obtained from the orbital venous plexus (with O2/CO2 anesthesia) and following the fourteenth dose at sacrifice from the heart following O2/CO2 anesthesia. Serums are assayed for lipoprotein cholesterol profiles, triglycerides, total cholesterol, Non-HDL cholesterol, HDL cholesterol, the ratio of HDL cholesterol to that of Non-HDL cholesterol, insulin, non-esterified fatty acids, and beta-hydroxy butyric acid. The percent body weight gain and the ratio of liver to body weight is also determined. These are shown as absolute values or as a percent change of the pretreatment values in Table 1.

With `CC(C)(CCCCC(O)CCCCC1(C(=O)O)CCC1)C(=O)O` (stereo not shown) [A], the IC50 (as a rule, the point on the concentration scale where inhibition reaches its midpoint) in data set [1] was found to be 12 µM. Moreover, in data set [2] (30 mg/kg/day), the “% wt. gain” value is listed as 12.3%; the “Glucose, Percent of Pre-treatment” value was −1%; the “HDL-C, Percent of Pre-treatment” value amounted to 76%; the “Insulin, Percent of Pre-treatment” value is −8%. In data set [2] (30 mg/kg/day), the “Non-HDL-C, Percent of Pre-treatment” value was −20%; the “BHA, Percent of Pre-treatment” value is on record as 150%; the “NEFA, Percent of Pre-treatment” value was −30%; the HDL-C/non-HDL-C is listed as 4. Also, in data set [2] (30 mg/kg/day), the “TC, Percent of Pre-treatment” value is given as 37% and the “TG, Percent of Pre-treatment” value is listed as −23%.
For the compound `O=C(O)C1(CCCCCC(O)CCCCCC2(C(=O)O)CC2)CC1` [B], the IC50 in data set [1] amounted to 0.9 µM. For the same compound, in data set [2] (100 mg/kg/day), the “% wt. gain” value is 4.2%; the “Glucose, Percent of Pre-treatment” value is −24%; the “HDL-C, Percent of Pre-treatment” value came out at 54%; the “Insulin, Percent of Pre-treatment” value is −51%. In data set [2] (100 mg/kg/day), the “Non-HDL-C, Percent of Pre-treatment” value is reported as −94%; the “BHA, Percent of Pre-treatment” value was found to be 254%; the “NEFA, Percent of Pre-treatment” value is −23%; the HDL-C/non-HDL-C is 153. In data set [2] (100 mg/kg/day), the “TC, Percent of Pre-treatment” value is listed as 13% and the “TG, Percent of Pre-treatment” value is on record as −91%.
Consider `O=C(O)C1(CCCCCC(O)CCCCCC2(C(=O)O)CCCC2)CCCC1` [Compound 6.33, 1-[11-(1-Carboxycyclopentyl)-6-hydroxyundecyl]-1-cyclopentanecarboxylic acid], for which the melting point (as a rule, the temperature, or range, at which the solid turns liquid) was 76 to 77 °C.
`CC(C)(CCCCC(O)CCCCC1(C(=O)O)CC1)C(=O)O` (stereo not shown) [Compound E]: the IC50 in data set [1] stood at 3 µM. Besides, in data set [2] (100 mg/kg/day), the “% wt. gain” value is listed as 10.4%; the “Glucose, Percent of Pre-treatment” value is on record as −2%; the “HDL-C, Percent of Pre-treatment” value came to 162%; the “Insulin, Percent of Pre-treatment” value came to 2%. In addition, in data set [2] (100 mg/kg/day), the “Non-HDL-C, Percent of Pre-treatment” value worked out at 1%; the “BHA, Percent of Pre-treatment” value amounted to 223%; the “NEFA, Percent of Pre-treatment” value is reported as −24%; the HDL-C/non-HDL-C is 5. In addition, in data set [2] (100 mg/kg/day), the “TC, Percent of Pre-treatment” value was 101% and the “TG, Percent of Pre-treatment” value was −34%.
Consider `CC(C)(CCCCCC(O)CCCCCC1(C(=O)O)CC1)C(=O)O` (stereo not shown) [D], for which, in data set [1], it took 1.4 µM to reach half-maximal inhibition (IC50). Further, in data set [2] (100 mg/kg/day), the “% wt. gain” value is recorded as −1.7%; the “Glucose, Percent of Pre-treatment” value is on record as −13%; the “HDL-C, Percent of Pre-treatment” value is reported as 15%; the “Insulin, Percent of Pre-treatment” value was −70%. Moreover, in data set [2] (100 mg/kg/day), the “Non-HDL-C, Percent of Pre-treatment” value is listed as −98%; the “BHA, Percent of Pre-treatment” value turned out to be 195%; the “NEFA, Percent of Pre-treatment” value was −44%; the HDL-C/non-HDL-C came to 785. In data set [2] (100 mg/kg/day), the “TC, Percent of Pre-treatment” value is listed as −11% and the “TG, Percent of Pre-treatment” value is recorded as −97%.
In data set [1], `O=C(O)C1(CCCCC(O)CCCCC2(C(=O)O)CC2)CC1` [F] had an IC50 of 1.8 µM.
